Measured values from the NIST ThermoML archive (doi:10.1021/acs.jced.8b00979).

Legend:
[1] = 100 kPa, Liquid; for viscosity: Capillary tube (Ostwald / Ubbelohde) method; for mass density: Vibrating tube method
[2] = xn = mol fraction of the nth substance listed; conditions: 100 kPa, Liquid, x1 = 1; for viscosity: Capillary tube (Ostwald / Ubbelohde) method; for mass density: Vibrating tube method

CCC(C)CO (stereo not drawn) [2-methyl-1-butanol]
[1]
Conditions | mass density [kg/m3] | viscosity [mPa·s]
288.15 K | 823.35 | 6.439
293.15 K | 819.64 | 5.3
298.15 K | 815.85 | 4.501
303.15 K | 812.12 | 3.825
308.15 K | 808.29 | 3.265
313.15 K | 804.41 | 2.783
318.15 K | 800.47 | 2.379
323.15 K | 796.47 | 2.06
328.15 K | 792.41 | 1.787

CCCCCO [pentan-1-ol]
[1]
Conditions | mass density [kg/m3] | viscosity [mPa·s]
288.15 K | 818.56 | 4.698
293.15 K | 814.92 | 4.043
298.15 K | 811.26 | 3.501
303.15 K | 807.57 | 3.028
308.15 K | 803.86 | 2.671
313.15 K | 800.11 | 2.335
318.15 K | 796.32 | 2.052
323.15 K | 792.48 | 1.81
328.15 K | 788.61 | 1.607

CCCCCO [pentan-1-ol] + CCC(C)CO
[2]
Conditions | mass density [kg/m3] | viscosity [mPa·s]
288.15 K | 818.56 | 4.698
293.15 K | 814.92 | 4.043
298.15 K | 811.26 | 3.501
303.15 K | 807.57 | 3.028
308.15 K | 803.86 | 2.671
313.15 K | 800.11 | 2.335
318.15 K | 796.32 | 2.052
323.15 K | 792.48 | 1.81
328.15 K | 788.61 | 1.607

CCCCCO [pentan-1-ol] + CCCC(C)O
[2]
Conditions | mass density [kg/m3] | viscosity [mPa·s]
288.15 K | 818.56 | 4.698
293.15 K | 814.92 | 4.043
298.15 K | 811.26 | 3.501
303.15 K | 807.57 | 3.028
308.15 K | 803.86 | 2.671
313.15 K | 800.11 | 2.335
318.15 K | 796.32 | 2.052
323.15 K | 792.48 | 1.81
328.15 K | 788.61 | 1.607

CCCC(C)O (stereo not drawn) [pentan-2-ol]
[1]
Conditions | mass density [kg/m3] | viscosity [mPa·s]
288.15 K | 813.34 | 5.057
293.15 K | 809.38 | 4.174
298.15 K | 805.35 | 3.398
303.15 K | 801.24 | 2.82
308.15 K | 797.05 | 2.336
313.15 K | 792.78 | 1.99
318.15 K | 788.42 | 1.706
323.15 K | 783.99 | 1.472
328.15 K | 779.46 | 1.306

CCCC(C)O (stereo not drawn) [pentan-2-ol] + CCC(C)CO
[2]
Conditions | mass density [kg/m3] | viscosity [mPa·s]
288.15 K | 813.34 | 5.057
293.15 K | 809.38 | 4.174
298.15 K | 805.35 | 3.398
303.15 K | 801.24 | 2.82
308.15 K | 797.05 | 2.336
313.15 K | 792.78 | 1.99
318.15 K | 788.42 | 1.706
323.15 K | 783.99 | 1.472
328.15 K | 779.46 | 1.306
